Active and inactive are the calls of the source. No cut-off for these calls is given here.
Columns and labels:
HepG2 [1] = experiment: Induction of apoptosis in human HepG2 cells assessed as necrotic cells at 1.25 uM measured after 48 hrs by Annexin V-FITC/propidium iodide staining based flow cytometry (reference value: 0%); type: functional
HepG2 [2] = experiment: Induction of apoptosis in human HepG2 cells assessed as necrotic cells at 2.5 uM measured after 48 hrs by Annexin V-FITC/propidium iodide staining based flow cytometry (reference value: 0%); type: functional
[3] = biological target: Histone deacetylase (Homo sapiens) (UniProt Q13547+O15379+Q9UBN7+Q92769+Q9UQL6+Q8WUI4+Q9BY41+Q96DB2+P56524+Q9UKV0+Q969S8); experiment: Inhibition of HDAC in human HepG2 cells assessed as increase in Ac-H3K9 expression at 1.25 to 20 uM measured after 24 hrs by Western blot analysis; type: cell-based; conditions: dose 1.25-20 µM
HepG2 [4] = experiment: Induction of apoptosis in human HepG2 cells assessed as early apoptotic cells at 5 uM measured after 48 hrs by Annexin V-FITC/propidium iodide staining based flow cytometry (reference value: 6.87%); type: functional
HepG2 [5] = experiment: Antiinvasive activity against human HepG2 cells at 20 uM measured after 24 hrs by trans-well assay; type: functional, cell-based; conditions: DDE = dose-dependent effect
HCT-116 = experiment: Antiproliferative activity against human HCT-116 cells measured after 72 hrs by MTT assay; type: functional, cell-based; conditions: HCT-116, 72 h
HepG2 [6] = experiment: Induction of apoptosis in human HepG2 cells assessed as viable cells at 20 uM measured after 48 hrs by Annexin V-FITC/propidium iodide staining based flow cytometry (reference value: 88.58%); type: functional; conditions: read-out: Activity
MDA-MB-231 = experiment: Antiproliferative activity against human MDA-MB-231 cells measured after 72 hrs by MTT assay; type: functional, cell-based; conditions: MDA-MB-231, 72 h
HepG2 [7] = experiment: Induction of apoptosis in human HepG2 cells assessed as viable cells at 1.25 uM measured after 48 hrs by Annexin V-FITC/propidium iodide staining based flow cytometry (reference value: 88.58%); type: functional; conditions: read-out: Activity
HepG2 [8] = experiment: Antimigratory activity against human HepG2 cells measured after 24 hrs by wound healing assay; type: functional, cell-based; conditions: dose 1.5-5 µM, DDE = dose-dependent effect
HepG2 [9] = experiment: Induction of apoptosis in human HepG2 cells assessed as late apoptotic cells at 2.5 uM measured after 48 hrs by Annexin V-FITC/propidium iodide staining based flow cytometry (reference value: 4.55%); type: functional
HepG2 [10] = experiment: Induction of apoptosis in human HepG2 cells assessed as viable cells at 2.5 uM measured after 48 hrs by Annexin V-FITC/propidium iodide staining based flow cytometry (reference value: 88.58%); type: functional; conditions: read-out: Activity
HepG2 [11] = experiment: Induction of apoptosis in human HepG2 cells assessed as late apoptotic cells at 1.25 uM measured after 48 hrs by Annexin V-FITC/propidium iodide staining based flow cytometry (reference value: 4.55%); type: functional
HepG2 [12] = experiment: Induction of apoptosis in human HepG2 cells assessed as necrotic cells at 5 uM measured after 48 hrs by Annexin V-FITC/propidium iodide staining based flow cytometry (reference value: 0%); type: functional
[13] = Half life in rat liver microsomes at 1 uM by LC-MS/MS analysis; type: ADME, Microsome
HepG2 [14] = experiment: Induction of apoptosis in human HepG2 cells assessed as viable cells at 5 uM measured after 48 hrs by Annexin V-FITC/propidium iodide staining based flow cytometry (reference value: 88.58%); type: functional; conditions: read-out: Activity
HepG2 [15] = experiment: Induction of apoptosis in human HepG2 cells assessed as early apoptotic cells at 10 uM measured after 48 hrs by Annexin V-FITC/propidium iodide staining based flow cytometry (reference value: 6.87%); type: functional
HepG2 [16] = experiment: Induction of apoptosis in human HepG2 cells assessed as early apoptotic cells at 2.5 uM measured after 48 hrs by Annexin V-FITC/propidium iodide staining based flow cytometry (reference value: 6.87%); type: functional
HepG2 [17] = experiment: Induction of apoptosis in human HepG2 cells assessed as necrotic cells at 10 uM measured after 48 hrs by Annexin V-FITC/propidium iodide staining based flow cytometry (reference value: 0%); type: functional
HepG2 [18] = experiment: Induction of apoptosis in human HepG2 cells assessed as increase in cleaved caspase-9 expression at 1.25 to 20 uM measured after 48 hrs by Western blot analysis; type: functional, cell-based; conditions: dose 1.25-20 µM
HepG2 [19] = experiment: Cell cycle arrest in human HepG2 cells assessed as accumulation at S phase at 10 uM measured after 48 hrs by propidium iodide staining based flow cytometry (reference value: 32.39%); type: functional
[20] = Cytotoxicity against human HL7702 cells measured after 72 hrs by MTT assay; conditions: HL7702 (L02) cells
HepG2 [21] = experiment: Induction of apoptosis in human HepG2 cells assessed as increase in cleaved caspase-3 expression at 1.25 to 20 uM measured after 48 hrs by Western blot analysis; type: functional, cell-based; conditions: dose 1.25-20 µM
HeLa = experiment: Antiproliferative activity against human HeLa cells measured after 72 hrs by MTT assay; type: functional, cell-based
HepG2 [22] = experiment: Cell cycle arrest in human HepG2 cells assessed as increase in p27 expression measured after 24 hrs by Western blot analysis; type: functional, cell-based; conditions: dose 1.25-20 µM, DDE = dose-dependent effect
HepG2 [23] = experiment: Induction of apoptosis in human HepG2 cells assessed as late apoptotic cells at 5 uM measured after 48 hrs by Annexin V-FITC/propidium iodide staining based flow cytometry (reference value: 4.55%); type: functional
HepG2 [24] = experiment: Cell cycle arrest in human HepG2 cells assessed as accumulation at G2/M phase at 2.5 uM measured after 48 hrs by propidium iodide staining based flow cytometry (reference value: 12.37%); type: functional
HT-29 = experiment: Antiproliferative activity against human HT-29 cells measured after 72 hrs by MTT assay; type: functional, cell-based; conditions: HT-29, 72 h
HepG2 [25] = experiment: Induction of apoptosis in human HepG2 cells assessed as viable cells at 10 uM measured after 48 hrs by Annexin V-FITC/propidium iodide staining based flow cytometry (reference value: 88.58%); type: functional; conditions: read-out: Activity
HepG2 [26] = experiment: Induction of apoptosis in human HepG2 cells assessed as increase in cleaved caspase-7 expression at 1.25 to 20 uM measured after 48 hrs by Western blot analysis; type: functional, cell-based; conditions: dose 1.25-20 µM
HepG2 [27] = experiment: Induction of apoptosis in human HepG2 cells assessed as necrotic cells at 20 uM measured after 48 hrs by Annexin V-FITC/propidium iodide staining based flow cytometry (reference value: 0%); type: functional
A-431 = experiment: Antiproliferative activity against human A-431 cells measured after 72 hrs by MTT assay; type: functional, cell-based; conditions: A-431, 72 h

With `COc1cc2nc(N3CCN(CCCCCC(=O)NO)CC3)nc(NC3CCN(Cc4ccccc4)CC3)c2cc1OC` the Activity (HepG2 [1]) was 0%, the Activity (HepG2 [2]) was 0% and the inhibition [3] was “Active”. The Activity (HepG2 [4]) was 8.59%, the Activity (HepG2 [5]) was “Dde” and the IC50 (HCT-116) was 11.1 µM. The viability at 20 µM (HepG2 [6]) was 33.1%, the IC50 (MDA-MB-231) was 9.3 µM and the viability at 1.25 µM (HepG2 [7]) was 88.5%. For the same molecule, the Activity (HepG2 [8]) was “Dde”, the Activity (HepG2 [9]) was 2.27% and the viability at 2.5 µM (HepG2 [10]) was 87.5%. It also gave an Activity (HepG2 [11]) of 2.68%, an Activity (HepG2 [12]) of 0% and a half-life at 1 µM [13] of 16 min. The viability at 5 µM (HepG2 [14]) was 87.3%, the Activity (HepG2 [15]) was 16.02% and the Activity (HepG2 [16]) was 10.22%. The Activity (HepG2 [17]) was 0%, the Activity (HepG2 [18]) was “Active” and the Activity (HepG2 [19]) was 24.67%. For the same molecule, the IC50 at 72 h [20] was 39.8 µM, the Activity (HepG2 [21]) was “Active” and the IC50 (HeLa) was 3.34 µM. For the same molecule, the Activity (HepG2 [22]) was “Dde”, the Activity (HepG2 [23]) was 4.14% and the Activity (HepG2 [24]) was 13.29%. For the same molecule, the IC50 (HT-29) was 6.99 µM, the viability at 10 µM (HepG2 [25]) was 77.8% and the Activity (HepG2 [26]) was “Active”. The Activity (HepG2 [27]) was 0% and the IC50 (A-431) was 2.38 µM.

Source: ChEMBL document CHEMBL5143537, “Quinazoline-based hydroxamic acid derivatives as dual histone methylation and deacetylation inhibitors for potential anticancer agents” (Bioorg Med Chem, 2022)
